# Assays:
# human recombinant MAGL = human recombinant MAGL (Homo sapiens (Human), UniProt Q99685); experiment: In vitro inhibition of human recombinant MAGL activity (Cayman inhibitor screening kit, 4-nitrophenylacetate hydrolysis); assay type: biochemical; details: human recombinant MAGL; read-out: Inhibition on MAGL activity (IC50)
# From the text: The inhibitory effect of the synthetic chemicals on activity of human recombinant MAGL was studied using commercial inhibitor screening kit (Cayman Chemical). […] The absorbance of the yellow product can be analyzed using the plate reader. […]
# human recombinant FAAH = human recombinant FAAH (Homo sapiens (Human), UniProt O00519); experiment: In vitro inhibition of human recombinant FAAH activity (Cayman FAAH inhibitor screening kit, AMC arachidonoyl amide hydrolysis); assay type: biochemical
# Chain of human recombinant FAAH (O00519 whole entry): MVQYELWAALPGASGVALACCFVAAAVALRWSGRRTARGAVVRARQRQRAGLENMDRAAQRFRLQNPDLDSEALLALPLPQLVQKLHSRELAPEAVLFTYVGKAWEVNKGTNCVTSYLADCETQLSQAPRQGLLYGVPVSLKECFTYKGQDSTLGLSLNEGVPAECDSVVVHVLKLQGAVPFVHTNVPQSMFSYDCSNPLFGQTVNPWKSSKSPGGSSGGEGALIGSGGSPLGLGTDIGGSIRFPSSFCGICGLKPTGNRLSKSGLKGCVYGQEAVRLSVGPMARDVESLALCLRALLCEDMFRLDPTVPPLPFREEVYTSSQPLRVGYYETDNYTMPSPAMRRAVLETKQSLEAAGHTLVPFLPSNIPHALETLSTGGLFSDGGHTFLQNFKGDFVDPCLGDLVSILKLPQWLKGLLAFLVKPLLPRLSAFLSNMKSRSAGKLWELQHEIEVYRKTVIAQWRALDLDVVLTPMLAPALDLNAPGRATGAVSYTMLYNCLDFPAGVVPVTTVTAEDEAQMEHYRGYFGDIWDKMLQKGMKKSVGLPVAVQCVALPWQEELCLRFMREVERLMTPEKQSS
# From the text: In brief, FAAH hydrolyzes AMC arachidonoyl amide resulting in the release of the fluorescent product, while the inhibitor will inhibit the FAAH activity and thus reduce the fluorescent signal.
# Chain of human recombinant MAGL (Q99685 whole entry): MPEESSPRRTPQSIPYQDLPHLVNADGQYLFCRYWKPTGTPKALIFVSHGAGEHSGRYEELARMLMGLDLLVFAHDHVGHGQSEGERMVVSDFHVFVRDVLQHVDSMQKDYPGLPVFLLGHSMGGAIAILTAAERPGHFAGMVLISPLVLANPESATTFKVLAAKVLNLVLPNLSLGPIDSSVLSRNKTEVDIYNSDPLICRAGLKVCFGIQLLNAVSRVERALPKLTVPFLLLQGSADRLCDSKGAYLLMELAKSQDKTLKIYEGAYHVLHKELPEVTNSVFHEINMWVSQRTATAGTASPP
SMILES,IC50 (human recombinant MAGL),IC50 (human recombinant FAAH)
"N#Cc1ccc2c(c1)nnn2C(=O)N1CCC(OC(c2ccc3c(c2)COCO3)c2ccc3c(c2)COCO3)CC1 [Example 57, 1-(4-(bis(4H-benzo[d][1,3]dioxin-6-yl)methoxy)piperidine-1-carbonyl)-1H-benzo[d][1,2,3]triazole-5-carbonitrile]",1 to 10 nM,100 to 1000 nM
"N#Cc1ccc2nnn(C(=O)N3CC4(CC(OC(c5ccc6c(c5)COCO6)c5ccc6c(c5)COCO6)C4)C3)c2c1 [Example 59, 1-(6-(bis(4H-benzo[d][1,3]dioxin-6-yl)methoxy)-2-azaspiro[3.3]heptane-2-carbonyl)-1H-benzo[d][1,2,3]triazole-6-carbonitrile]",10 to 100 nM,~10000 nM
"N#Cc1ccc2c(c1)nnn2C(=O)N1CC2(CC(OC(c3ccc4c(c3)COCO4)c3ccc4c(c3)COCO4)C2)C1 [Example 60, 1-(6-(bis(4H-benzo[d][1,3]dioxin-6-yl)methoxy)-2-azaspiro[3.3]heptane-2-carbonyl)-1H-benzo[d][1,2,3]triazole-5-carbonitrile]",10 to 100 nM,< 10000 nM
"N#Cc1ccc2nnn(C(=O)N3CCC(N(c4ccc(F)cc4)c4ccc(F)cc4)CC3)c2c1 [Example 61, 1-(4-(bis(4-fluorophenyl)amino)piperidine-1-carbonyl)-1H-benzo[d][1,2,3]triazole-6-carbonitrile]",1 to 10 nM,100 to 1000 nM
"N#Cc1ccc2nnn(C(=O)N3CCC(N(c4ccc(F)cc4)c4ccc5c(c4)OCO5)CC3)c2c1 [Example 63, 1-(4-(benzo[d][1,3]dioxol-5-yl(4-fluorophenyl)amino)piperidine-1-carbonyl)-1H-benzo[d][1,2,3]triazole-6-carbonitrile]",1 to 10 nM,100 to 1000 nM
"N#Cc1ccc2c(c1)nnn2C(=O)N1CCC(N(c2ccc(F)cc2)c2ccc3c(c2)OCO3)CC1 [Example 64, 1-(4-(benzo[d][1,3]dioxol-5-yl(4-fluorophenyl)amino)piperidine-1-carbonyl)-1H-benzo[d][1,2,3]triazole-5-carbonitrile]",1 to 10 nM,10 to 100 nM
"COc1ccc(N(c2ccc(F)cc2)C2CCN(C(=O)n3nnc4ccc(C#N)cc43)CC2)cc1 [Example 65, 1-(4-((4-fluorophenyl)(4-methoxyphenyl)amino)piperidine-1-carbonyl)-1H-benzo[d][1,2,3]triazole-6-carbonitrile]",1 to 10 nM,100 to 1000 nM
"N#Cc1ccc2c(c1)nnn2C(=O)N1CCC(N(c2ccc3c(c2)OCO3)c2ccc3c(c2)OCO3)CC1 [Example 68, 1-(4-(bis(benzo[d][1,3]dioxol-5-yl)amino)piperidine-1-carbonyl)-1H-benzo[d][1,2,3]triazole-5-carbonitrile]",1 to 10 nM,100 to 1000 nM
"N#Cc1ccc2nnn(C(=O)N3CCC(N(c4ccc(C(F)(F)F)cc4)c4ccc5c(c4)OCO5)CC3)c2c1 [Example 69, 1-(4-(benzo[d][1,3]dioxol-5-yl(4-(trifluoromethyl)phenyl)amino)piperidine-1-carbonyl)-1H-benzo[d][1,2,3]triazole-6-carbonitrile]",1 to 10 nM,100 to 1000 nM
"N#Cc1ccc2c(c1)nnn2C(=O)N1CCC(N(c2ccc(C(F)(F)F)cc2)c2ccc3c(c2)OCO3)CC1 [Example 70, 1-(4-(benzo[d][1,3]dioxol-5-yl(4-(trifluoromethyl)phenyl)amino)piperidine-1-carbonyl)-1H-benzo[d][1,2,3]triazole-5-carbonitrile]",1 to 10 nM,100 to 1000 nM
"N#Cc1ncn(C(=O)N2CCC(N(c3ccc(C(F)(F)F)cc3)c3ccc4c(c3)OCO4)CC2)n1 [Example 71, 1-(4-(benzo[d][1,3]dioxol-5-yl(4-(trifluoromethyl)phenyl)amino)piperidine-1-carbonyl)-1H-1,2,4-triazole-3-carbonitrile]",1 to 10 nM,100 to 1000 nM
"COc1ccc(N(c2ccc3c(c2)OCO3)C2CCN(C(=O)n3nnc4ccc(C#N)cc43)CC2)cc1 [Example 72, 1-(4-(benzo[d][1,3]dioxol-5-yl(4-methoxyphenyl)amino)piperidine-1-carbonyl)-1H-benzo[d][1,2,3]triazole-6-carbonitrile]",1 to 10 nM,100 to 1000 nM
"N#Cc1ccc2nnn(C(=O)N3CCC(N(c4cccnc4)c4ccc5c(c4)OCO5)CC3)c2c1 [Example 74, 1-(4-(benzo[d][1,3]dioxol-5-yl(pyridin-3-yl)amino)piperidine-1-carbonyl)-1H-benzo[d][1,2,3]triazole-6-carbonitrile]",1 to 10 nM,100 to 1000 nM
"C=COc1ccc(N(c2ccc(F)cc2)C2CCN(C(=O)n3nnc4cc(C#N)ccc43)CC2)cc1 [Example 77, 1-(4-((4-fluorophenyl)(4-(vinyloxy)phenyl)amino)piperidine-1-carbonyl)-1H-benzo[d][1,2,3]triazole-5-carbonitrile]",1 to 10 nM,100 to 1000 nM
"N#Cc1ncn(C(=O)N2CCC3(CC2)CCN(C(c2ccc4c(c2)COCO4)c2ccc4c(c2)COCO4)CC3)n1 [Example 79, 1-(9-(bis(4H-benzo[d][1,3]dioxin-6-yl)methyl)-3,9-diazaspiro[5.5]undecane-3-carbonyl)-1H-1,2,4-triazole-3-carbonitrile]",1 to 10 nM,~50000 nM
"N#Cc1ncn(C(=O)N2CC3(C2)CN(C(c2ccc4c(c2)COCO4)c2ccc4c(c2)COCO4)C3)n1 [Example 80, 1-(6-(bis(4H-benzo[d][1,3]dioxin-6-yl)methyl)-2,6-diazaspiro[3.3]heptane-2-carbonyl)-1H-1,2,4-triazole-3-carbonitrile]",10 to 100 nM,10000 to 50000 nM
"N#Cc1ncn(C(=O)N2CC3(CCN(C(c4ccc5c(c4)COCO5)c4ccc5c(c4)COCO5)CC3)C2)n1 [Example 82, 1-(7-(bis(4H-benzo[d][1,3]dioxin-6-yl)methyl)-2,7-diazaspiro[3.5]nonane-2-carbonyl)-1H-1,2,4-triazole-3-carbonitrile]",10 to 100 nM,> 50000 nM
"N#Cc1ncn(C(=O)N2CCC3(CC2)CN(C(c2ccc4c(c2)COCO4)c2ccc4c(c2)COCO4)C3)n1 [Example 83, 1-(2-(bis(4H-benzo[d][1,3]dioxin-6-yl)methyl)-2,7-diazaspiro[3.5]nonane-7-carbonyl)-1H-1,2,4-triazole-3-carbonitrile]",1 to 10 nM,10000 to 50000 nM
"N#Cc1ncn(C(=O)N2CCC3(CCN(C(c4ccc5c(c4)COCO5)c4ccc5c(c4)COCO5)C3)C2)n1 (stereo not shown) [Example 85, 1-(7-(bis(4H-benzo[d][1,3]dioxin-6-yl)methyl)-2,7-diazaspiro[4.4]nonane-2-carbonyl)-1H-1,2,4-triazole-3-carbonitrile]",10 to 100 nM,1000 to 10000 nM

# Next, values leading:
IC50 (human recombinant MAGL),IC50 (human recombinant FAAH),SMILES
1 to 10 nM,1000 to 10000 nM,"CN(CCOC(c1ccc2c(c1)COCO2)c1ccc2c(c1)COCO2)C(=O)n1nnc2ccc(C#N)cc21 [Example 55, N-(2-(bis(4H-benzo[d][1,3]dioxin-6-yl)methoxy)ethyl)-6-cyano-N-methyl-1H-benzo[d][1,2,3]triazole-1-carboxamide]"
1 to 10 nM,> 10000 nM,"N#Cc1ccc2nnn(C(=O)N3CCC(OC(c4ccc5c(c4)COCO5)c4ccc5c(c4)COCO5)CC3)c2c1 [Example 56, 1-(4-(bis(4H-benzo[d][1,3]dioxin-6-yl)methoxy)piperidine-1-carbonyl)-1H-benzo[d][1,2,3]triazole-6-carbonitrile]"
1 to 10 nM,100 to 1000 nM,"COc1ccc(N(c2ccc(F)cc2)C2CCN(C(=O)n3nnc4cc(C#N)ccc43)CC2)cc1 [Example 66, 1-(4-((4-fluorophenyl)(4-methoxyphenyl)amino)piperidine-1-carbonyl)-1H-benzo[d][1,2,3]triazole-5-carbonitrile]"
1 to 10 nM,100 to 1000 nM,"N#Cc1ccc2nnn(C(=O)N3CCC(N(c4ccc5c(c4)OCO5)c4ccc5c(c4)OCO5)CC3)c2c1 [Example 67, 1-(4-(bis(benzo[d][1,3]dioxol-5-yl)amino)piperidine-1-carbonyl)-1H-benzo[d][1,2,3]triazole-6-carbonitrile]"
1 to 10 nM,100 to 1000 nM,"COc1ccc(N(c2ccc3c(c2)OCO3)C2CCN(C(=O)n3nnc4cc(C#N)ccc43)CC2)cc1 [Example 73, 1-(4-(benzo[d][1,3]dioxol-5-yl(4-methoxyphenyl)amino)piperidine-1-carbonyl)-1H-benzo[d][1,2,3]triazole-5-carbonitrile]"
1 to 10 nM,100 to 1000 nM,"N#Cc1ccc2c(c1)nnn2C(=O)N1CCC(N(c2cccnc2)c2ccc3c(c2)OCO3)CC1 [Example 75, 1-(4-(benzo[d][1,3]dioxol-5-yl(pyridin-3-yl)amino)piperidine-1-carbonyl)-1H-benzo[d][1,2,3]triazole-5-carbonitrile]"
1 to 10 nM,100 to 1000 nM,"C=COc1ccc(N(c2ccc(F)cc2)C2CCN(C(=O)n3nnc4ccc(C#N)cc43)CC2)cc1 [Example 76, 1-(4-((4-fluorophenyl)(4-(vinyloxy)phenyl)amino)piperidine-1-carbonyl)-1H-benzo[d][1,2,3]triazole-6-carbonitrile]"
1 to 10 nM,1000 to 10000 nM,"N#Cc1ncn(C(=O)N2CC3CN(C(c4ccc5c(c4)COCO5)c4ccc5c(c4)COCO5)CC3C2)n1 (stereo not drawn) [Example 81, meso-1-(5-(bis(4H-benzo[d][1,3]dioxin-6-yl)methyl)octahydropyrrolo[3,4-c]pyrrole-2-carbonyl)-1H-1,2,4-triazole-3-carbonitrile]"
1 to 10 nM,1000 to 10000 nM,"N#Cc1ncn(C(=O)N2CC3(CCN(C(c4ccc5c(c4)COCO5)c4ccc5c(c4)COCO5)C3)C2)n1 [Example 84, 1-(6-(bis(4H-benzo[d][1,3]dioxin-6-yl)methyl)-2,6-diazaspiro[3.4]octane-2-carbonyl)-1H-1,2,4-triazole-3-carbonitrile]"
1 to 10 nM,100 to 10000 nM,"COc1ccc(C(c2ccc(F)cc2)N2CCN(C(=O)n3nnc4cc(C#N)ccc43)CC2)cc1 (stereo not shown) [Example 87, 1-(4-((4-fluorophenyl)(4-methoxyphenyl)methyl)piperazine-1-carbonyl)-1H-benzo[d][1,2,3]triazole-5-carbonitrile]"

# — patent US12378231B2, “Small molecules as monoacylglycerol lipase (MAGL) inhibitors, compositions and use thereof” (APOGEE PHARMACEUTICALS, INC., priority 2023, dated 2025)
